In the kinase profiling compilation of Christmann-Franck et al. (2016):

Key:
Assay in all cases: KINOMEscan competition binding
Conditions in all cases: compound 10.0 µM
ULK2 (human) = ULK2 (human) (UniProt Q8IYT8)
RPS6KA2 KD2 (human) = RPS6KA2 KD2 (human) (UniProt Q15349)
ERBB2 (human) = ERBB2 (human) (UniProt P04626)
EPHA2 (human) = EPHA2 (human) (UniProt P29317)
AURKA (human) = AURKA (human) (UniProt O14965)
CDK16 (human) = CDK16 (human) (UniProt Q00536)
WEE2 (human) = WEE2 (human) (UniProt P0C1S8)
MUSK (human) = MUSK (human) (UniProt O15146)
PDPK1 (human) = PDPK1 (human) (UniProt O15530)
CLK1 (human) = CLK1 (human) (UniProt P49759)
PLK3 (human) = PLK3 (human) (UniProt Q9H4B4)
Sequence of PLK3 (human) (Q9H4B4 whole entry, looked up): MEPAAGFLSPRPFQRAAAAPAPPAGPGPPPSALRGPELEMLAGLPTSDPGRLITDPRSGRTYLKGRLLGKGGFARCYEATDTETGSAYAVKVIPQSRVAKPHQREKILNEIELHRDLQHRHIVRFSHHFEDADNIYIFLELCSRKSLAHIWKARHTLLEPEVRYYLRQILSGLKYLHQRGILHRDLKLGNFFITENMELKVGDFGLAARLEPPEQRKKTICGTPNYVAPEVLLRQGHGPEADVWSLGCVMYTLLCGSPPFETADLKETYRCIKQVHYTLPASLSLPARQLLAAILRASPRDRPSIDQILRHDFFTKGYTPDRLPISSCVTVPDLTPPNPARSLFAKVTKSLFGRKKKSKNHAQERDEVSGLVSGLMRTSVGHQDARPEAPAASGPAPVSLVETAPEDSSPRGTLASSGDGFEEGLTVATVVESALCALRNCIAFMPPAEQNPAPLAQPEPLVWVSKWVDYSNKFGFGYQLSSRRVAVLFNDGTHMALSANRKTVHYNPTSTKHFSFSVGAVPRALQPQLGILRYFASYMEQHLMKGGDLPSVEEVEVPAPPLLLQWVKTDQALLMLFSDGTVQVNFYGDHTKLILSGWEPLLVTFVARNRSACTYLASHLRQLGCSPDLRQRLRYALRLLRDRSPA

PRKD3 (human) = PRKD3 (human) (UniProt O94806)
CDK7 (human) = CDK7 (human) (UniProt P50613)
Sequence of CDK7 (human) (P50613 whole entry, looked up): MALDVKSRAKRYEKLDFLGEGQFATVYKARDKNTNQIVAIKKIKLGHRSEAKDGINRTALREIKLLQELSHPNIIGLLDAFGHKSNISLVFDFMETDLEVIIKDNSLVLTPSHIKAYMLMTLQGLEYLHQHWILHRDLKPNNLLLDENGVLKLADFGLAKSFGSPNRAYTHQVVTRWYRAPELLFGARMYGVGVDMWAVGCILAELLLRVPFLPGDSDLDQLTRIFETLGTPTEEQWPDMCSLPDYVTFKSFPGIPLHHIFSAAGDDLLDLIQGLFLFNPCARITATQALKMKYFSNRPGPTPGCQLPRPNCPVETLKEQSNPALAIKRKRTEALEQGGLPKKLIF

RPS6KA1 KD2 (human) = RPS6KA1 KD2 (human) (UniProt Q15418)
STK16 (human) = STK16 (human) (UniProt O75716)
DDR2 (human) = DDR2 (human) (UniProt Q16832)
ADCK4 (human) = ADCK4 (human) (UniProt Q96D53)
Sequence of ADCK4 (human) (Q96D53 whole entry, looked up): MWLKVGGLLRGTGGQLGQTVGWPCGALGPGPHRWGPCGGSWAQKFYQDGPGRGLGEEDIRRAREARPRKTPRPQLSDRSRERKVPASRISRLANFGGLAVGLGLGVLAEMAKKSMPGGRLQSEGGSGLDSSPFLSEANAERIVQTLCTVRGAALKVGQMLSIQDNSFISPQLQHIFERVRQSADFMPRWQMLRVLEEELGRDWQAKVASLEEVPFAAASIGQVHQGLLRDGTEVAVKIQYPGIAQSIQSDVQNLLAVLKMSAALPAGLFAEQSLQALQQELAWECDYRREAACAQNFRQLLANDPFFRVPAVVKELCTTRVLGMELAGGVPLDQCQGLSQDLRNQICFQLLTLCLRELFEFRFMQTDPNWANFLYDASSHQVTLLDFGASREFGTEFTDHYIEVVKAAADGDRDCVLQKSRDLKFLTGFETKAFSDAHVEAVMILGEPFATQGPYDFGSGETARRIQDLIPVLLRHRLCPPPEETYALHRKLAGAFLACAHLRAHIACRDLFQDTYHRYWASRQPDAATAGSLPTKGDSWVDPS

DCLK1 (human) = DCLK1 (human) (UniProt O15075)
ACVR1B (human) = ACVR1B (human) (UniProt P36896)
MAPK7 (human) = MAPK7 (human) (UniProt Q13164)
STK17A (human) = STK17A (human) (UniProt Q9UEE5)
EPHA3 (human) = EPHA3 (human) (UniProt P29320)
Sequence of EPHA3 (human) (P29320 whole entry, looked up): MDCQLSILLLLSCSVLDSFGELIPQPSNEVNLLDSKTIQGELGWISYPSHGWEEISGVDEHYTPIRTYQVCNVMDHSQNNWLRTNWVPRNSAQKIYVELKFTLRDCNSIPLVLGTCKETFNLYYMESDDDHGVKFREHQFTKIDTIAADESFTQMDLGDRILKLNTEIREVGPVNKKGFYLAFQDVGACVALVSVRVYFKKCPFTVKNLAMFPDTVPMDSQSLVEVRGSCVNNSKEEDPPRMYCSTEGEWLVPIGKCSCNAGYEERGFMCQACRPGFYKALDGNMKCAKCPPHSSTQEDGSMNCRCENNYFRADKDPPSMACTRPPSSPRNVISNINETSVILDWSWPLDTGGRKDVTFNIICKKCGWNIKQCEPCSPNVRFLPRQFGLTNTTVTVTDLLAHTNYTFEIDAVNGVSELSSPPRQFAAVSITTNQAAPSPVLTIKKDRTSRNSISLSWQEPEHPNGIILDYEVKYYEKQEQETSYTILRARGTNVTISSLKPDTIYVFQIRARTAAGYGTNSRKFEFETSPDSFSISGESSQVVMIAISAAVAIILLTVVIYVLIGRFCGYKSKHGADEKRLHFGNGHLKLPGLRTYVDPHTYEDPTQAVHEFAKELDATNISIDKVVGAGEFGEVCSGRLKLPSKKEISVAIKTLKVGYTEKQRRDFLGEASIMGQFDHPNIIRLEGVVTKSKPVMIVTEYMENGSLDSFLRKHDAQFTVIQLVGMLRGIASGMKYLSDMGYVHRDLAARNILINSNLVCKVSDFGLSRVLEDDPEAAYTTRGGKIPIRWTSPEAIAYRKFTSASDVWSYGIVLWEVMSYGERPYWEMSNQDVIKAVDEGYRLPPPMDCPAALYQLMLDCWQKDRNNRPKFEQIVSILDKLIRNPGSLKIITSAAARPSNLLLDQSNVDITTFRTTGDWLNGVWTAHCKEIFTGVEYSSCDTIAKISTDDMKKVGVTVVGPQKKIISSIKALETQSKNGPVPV

PRKAA2 (human) = PRKAA2 (human) (UniProt P54646)
Sequence of PRKAA2 (human) (P54646 whole entry, looked up): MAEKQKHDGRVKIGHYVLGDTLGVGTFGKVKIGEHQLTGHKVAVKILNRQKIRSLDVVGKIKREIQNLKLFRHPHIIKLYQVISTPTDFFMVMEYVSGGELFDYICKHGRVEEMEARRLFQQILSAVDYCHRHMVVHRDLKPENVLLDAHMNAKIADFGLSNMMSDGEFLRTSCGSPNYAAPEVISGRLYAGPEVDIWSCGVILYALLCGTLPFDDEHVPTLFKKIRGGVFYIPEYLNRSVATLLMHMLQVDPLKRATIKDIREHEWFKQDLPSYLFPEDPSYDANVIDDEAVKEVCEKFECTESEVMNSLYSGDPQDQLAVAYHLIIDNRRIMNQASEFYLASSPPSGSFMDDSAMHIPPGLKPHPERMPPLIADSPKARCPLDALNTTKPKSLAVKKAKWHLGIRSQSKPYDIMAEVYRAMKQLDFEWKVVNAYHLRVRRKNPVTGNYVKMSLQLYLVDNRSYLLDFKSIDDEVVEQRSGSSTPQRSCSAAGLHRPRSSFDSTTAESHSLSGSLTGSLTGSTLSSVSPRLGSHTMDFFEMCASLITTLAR

FGFR2 (human) = FGFR2 (human) (UniProt P21802)
CLK3 (human) = CLK3 (human) (UniProt P49761)
MAP4K2 (human) = MAP4K2 (human) (UniProt Q12851)
PRKACB (human) = PRKACB (human) (UniProt P22694)
TESK1 (human) = TESK1 (human) (UniProt Q15569)
FLT4 (human) = FLT4 (human) (UniProt P35916)
ULK1 (human) = ULK1 (human) (UniProt O75385)
SGK110 (human) = SGK110 (human) (UniProt P0C264)
MKNK2 (human) = MKNK2 (human) (UniProt Q9HBH9)
TNNI3K (human) = TNNI3K (human) (UniProt Q59H18)
Sequence of TNNI3K (human) (Q59H18 whole entry, looked up): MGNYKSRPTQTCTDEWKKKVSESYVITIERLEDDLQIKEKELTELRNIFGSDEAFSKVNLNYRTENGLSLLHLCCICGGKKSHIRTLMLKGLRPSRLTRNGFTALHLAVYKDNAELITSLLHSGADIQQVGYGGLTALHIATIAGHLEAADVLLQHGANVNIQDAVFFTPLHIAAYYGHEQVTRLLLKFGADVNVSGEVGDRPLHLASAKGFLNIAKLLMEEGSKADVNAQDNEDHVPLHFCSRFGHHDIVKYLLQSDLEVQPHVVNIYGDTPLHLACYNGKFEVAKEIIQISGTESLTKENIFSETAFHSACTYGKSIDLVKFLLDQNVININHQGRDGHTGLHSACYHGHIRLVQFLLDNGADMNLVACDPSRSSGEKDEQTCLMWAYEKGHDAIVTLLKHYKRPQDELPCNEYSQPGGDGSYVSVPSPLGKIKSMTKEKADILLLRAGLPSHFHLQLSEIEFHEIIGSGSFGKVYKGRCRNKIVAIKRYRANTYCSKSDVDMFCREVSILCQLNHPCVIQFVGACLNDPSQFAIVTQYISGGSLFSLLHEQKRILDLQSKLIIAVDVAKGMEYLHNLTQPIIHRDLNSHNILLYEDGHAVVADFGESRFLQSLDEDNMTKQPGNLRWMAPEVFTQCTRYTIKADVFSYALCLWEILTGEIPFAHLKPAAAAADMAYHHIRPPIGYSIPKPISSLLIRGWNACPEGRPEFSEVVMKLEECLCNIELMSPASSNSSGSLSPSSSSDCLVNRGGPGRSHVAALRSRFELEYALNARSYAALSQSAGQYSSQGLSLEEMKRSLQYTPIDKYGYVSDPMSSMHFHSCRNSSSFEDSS

EPHB1 (human) = EPHB1 (human) (UniProt P54762)
MST1R (human) = MST1R (human) (UniProt Q04912)
MAPK8 (human) = MAPK8 (human) (UniProt P45983)
[1] = system: KIT (human), P10721 [V559D]
SIK2 (human) = SIK2 (human) (UniProt Q9H0K1)
CSNK1E (human) = CSNK1E (human) (UniProt P49674)
Sequence of CSNK1E (human) (P49674 whole entry, looked up): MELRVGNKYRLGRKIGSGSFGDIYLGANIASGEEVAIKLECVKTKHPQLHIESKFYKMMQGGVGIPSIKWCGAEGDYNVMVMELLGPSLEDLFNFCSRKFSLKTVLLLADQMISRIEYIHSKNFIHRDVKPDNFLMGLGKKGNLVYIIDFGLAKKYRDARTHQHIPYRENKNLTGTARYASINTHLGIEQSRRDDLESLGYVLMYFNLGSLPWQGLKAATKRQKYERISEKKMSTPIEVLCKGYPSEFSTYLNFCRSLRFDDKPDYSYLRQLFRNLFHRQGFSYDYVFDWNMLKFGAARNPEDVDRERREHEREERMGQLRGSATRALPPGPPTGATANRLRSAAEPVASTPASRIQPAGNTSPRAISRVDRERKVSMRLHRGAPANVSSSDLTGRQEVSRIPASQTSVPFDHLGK

Sequence of CDK16 (human) (Q00536 whole entry, looked up): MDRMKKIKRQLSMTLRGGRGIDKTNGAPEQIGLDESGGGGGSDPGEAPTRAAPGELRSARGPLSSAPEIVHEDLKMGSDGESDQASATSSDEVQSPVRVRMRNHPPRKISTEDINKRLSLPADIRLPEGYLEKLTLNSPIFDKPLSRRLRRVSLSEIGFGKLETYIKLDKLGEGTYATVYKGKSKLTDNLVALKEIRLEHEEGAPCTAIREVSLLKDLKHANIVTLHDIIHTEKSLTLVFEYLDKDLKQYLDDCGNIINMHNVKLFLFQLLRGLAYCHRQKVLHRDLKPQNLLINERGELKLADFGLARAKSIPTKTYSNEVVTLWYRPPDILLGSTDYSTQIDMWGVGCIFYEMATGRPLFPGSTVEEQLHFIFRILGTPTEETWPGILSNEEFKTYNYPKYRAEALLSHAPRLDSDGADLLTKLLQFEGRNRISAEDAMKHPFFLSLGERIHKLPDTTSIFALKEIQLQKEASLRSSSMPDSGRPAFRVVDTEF

CCC(=O)N1CCN(c2ccc(-n3c(=O)ccc4cnc5ccc(-c6cnc7ccccc7c6)cc5c43)cc2C(F)(F)F)CC1
kinase still bound, per cent of control (ULK2 (human)): 75%
kinase still bound, per cent of control (RPS6KA2 KD2 (human)): 85%
kinase still bound, per cent of control (ERBB2 (human)): 91%
kinase still bound, per cent of control (EPHA2 (human)): 59%
kinase still bound, per cent of control (AURKA (human)): 100%
kinase still bound, per cent of control (CDK16 (human)): 91%
kinase still bound, per cent of control (WEE2 (human)): 100%
kinase still bound, per cent of control (MUSK (human)): 100%
kinase still bound, per cent of control (PDPK1 (human)): 100%
kinase still bound, per cent of control (CLK1 (human)): 49%
kinase still bound, per cent of control (PLK3 (human)): 87%
kinase still bound, per cent of control (PRKD3 (human)): 100%
kinase still bound, per cent of control (CDK7 (human)): 57%
kinase still bound, per cent of control (RPS6KA1 KD2 (human)): 100%
kinase still bound, per cent of control (STK16 (human)): 18%
kinase still bound, per cent of control (DDR2 (human)): 100%
kinase still bound, per cent of control (ADCK4 (human)): 15%
kinase still bound, per cent of control (DCLK1 (human)): 100%
kinase still bound, per cent of control (ACVR1B (human)): 45%
kinase still bound, per cent of control (MAPK7 (human)): 100%
kinase still bound, per cent of control (STK17A (human)): 93%
kinase still bound, per cent of control (EPHA3 (human)): 70%
kinase still bound, per cent of control (PRKAA2 (human)): 74%
kinase still bound, per cent of control (FGFR2 (human)): 55%
kinase still bound, per cent of control (CLK3 (human)): 43%
kinase still bound, per cent of control (MAP4K2 (human)): 35%
kinase still bound, per cent of control (PRKACB (human)): 100%
kinase still bound, per cent of control (TESK1 (human)): 58%
kinase still bound, per cent of control (FLT4 (human)): 74%
kinase still bound, per cent of control (ULK1 (human)): 100%
kinase still bound, per cent of control (SGK110 (human)): 94%
kinase still bound, per cent of control (MKNK2 (human)): 54%
kinase still bound, per cent of control (TNNI3K (human)): 66%
kinase still bound, per cent of control (EPHB1 (human)): 100%
kinase still bound, per cent of control (MST1R (human)): 55%
kinase still bound, per cent of control (MAPK8 (human)): 22%
kinase still bound, per cent of control [1]: 50%
kinase still bound, per cent of control (SIK2 (human)): 23%
kinase still bound, per cent of control (CSNK1E (human)): 59%
